Key:
[1] = tested on: mitochondrial transfer from BM-MSC to UCB iTregs; assay: Mitochondrial transfer from mt-GFP lentivirus transduced MSC into iTregs, flow cytometry; type: cell-based, human
TNT formation = details: Sáenz-de-Santa-María et al., Oncotarget, 2017; cited from earlier work
[2] = tested on: mitochondrial transfer from BM-MSC to UCB iTregs; assay: Mitochondrial transfer from BM-MSC into UCB iTregs, MitoTracker Red FM by confocal microscopy; type: cell-based, human
[3] = tested on: BACH2, SENP3, Foxp3 in iTreg; assay: iTreg Foxp3, BACH2 and SENP3 protein expression; type: cell-based, human; details: after cytochalasin B treatment
[4] = tested on: mitochondrial transfer from hBM-MSC to iTreg; assay: Mitochondrial transfer from BM-MSC into iTregs, MitoTracker green by flow cytometry; type: cell-based, human; details: Cytochalasin B 350 nM treated BM-MSC, 24 h, n=6; Mock 2208±122.1

## Nc1ncnc2c1ncn2[C@@H]1O[C@H](COP(=O)(O)CP(=O)(O)O)[C@@H](O)[C@H]1O [Adenosine 5′-(α,(β-methylene)diphosphate, Adenosine 5′-(α,β-methylene)diphosphate]
[1]
  mitochondrial transfer from BM-MSC to UCB iTregs (mt-GFP+ iTregs): significantly blocks mitochondrial transfer

## C=C1[C@@H](C)[C@H]2[C@H](Cc3ccccc3)NC(=O)[C@]23[C@H](OC(C)=O)/C=C/[C@@](C)(O)C(=O)[C@@H](C)C/C=C/[C@H]3[C@@H]1O [Cytocalasin D, Cytochalasin D]
TNT formation
  TNT formation: significant reduction

## CC(=O)N[C@@H](CS)C(=O)O [N-acetylcysteine]
[2]; 200 uM added to BM-MSC+iTreg culture, 24-36 h
  mitochondria uptake by Treg (confocal): minimally reduced

## C=C(C)[C@H]1Cc2c(ccc3c2O[C@@H]2COc4cc(OC)c(OC)cc4[C@@H]2C3=O)O1 [rotenone]
[1]; rotenone treated mt-GFP MSC platform, 72 hrs
  transfer of mitochondria into iTregs from rotenone treated MSC: do not transfer

## Cytochalasin B
[3]
  iTreg BACH2 protein expression: dramatically decreased
  iTreg SENP3 protein expression: no significant effect
[2]; 350 nM, 24 h
  mitochondrial transfer from MSC to UCB iTregs (MitoTracker+ iTregs, confocal): significantly blocks mitochondrial transfer
[4]
  mitochondrial transfer from hBM-MSC to iTreg (MitoTracker MFI): 923.8±89 MFI

Source: US20220002671A1, “T Cells with Improved Mitochondrial Function” (Abraham J and Phyllis Katz Cord Blood Foundation, priority 2018, published 2022)
